Laboratory results as given in patent US7384639B2, “Methods of treating or preventing an infectious disease using an immunogenic conjugate of a gram-negative bacterial autoinducer molecule” (University of Rochester, priority 1998, dated 2008).

What was measured:
LasR = assay: microbe, parasite or virus in culture; type: cell-based; conditions: Pseudomonas aeruginosa, read-out: concentration that stimulates half-maximal activity
Experimental: Positive clones were tested in a Pseudomonas aeruginosa bioassay. PAC-JP2 (bearing the lasI/rhII double deletion) produces no PAI-1 but retains the ability to produce LasR. When PAI-1 is added exogenously, it can bind to LasR and induce the transcription of lasI. Test samples containing 40 nM PAI-1 (the concentration that stimulates half-maximal activity in this assay) were preincubated at 37° C. with anti-PAI-1 monoclonal antibody (618.4). Control samples containing 40 nm PAI-1 were preincubated at 37° C. with an equal volume of PBS. Following preincubation, the samples were tested in a Pseudomonas aeruginosa bioassay using PAO-JP2 containing a plasmid with a lasI/LacZ fusion. When the bacteria reached on OD600 of 0.8-1.0, the samples were assayed for the production of β-galactosidase, which was expressed as Miller Units of activity.

[1] = system: lasI/lasZ transcriptional fusion (lasR); conditions: λI14-MG4 (pPCS1), Seed et al., 1995, cited from earlier work
lymphocytes = conditions: in vivo (so in the source); Telford et al., 1998; cited from earlier work
[2] = system: tumor necrosis factor and interleukin-12; conditions: Telford et al., 1998; cited from earlier work

For `CCCCCCCCCC(=O)CC(=O)NC1CCOC1=O` [PAI-1, N-(3-oxo)-dodecanoyl-L-homoserine lactone], the EC50 (LasR) is given as 40 nM, the “lowest PAI-1 concentration that activates the construct” value [1] is given as 10 pM and the EC50 ([1]; read-out: PAI-1 concentration for half-maximal expression) is given as 0.1 nM. The “effect on proliferation of lymphocytes” value (lymphocytes) was “inhibit the proliferation of lymphocytes” and the “effect on expression of tumor necrosis factor and interleukin-12” value [2] was “downregulates expression”.
